“Also recorded” adds a separate entry of the source. Like-named read-outs stand apart in the source and are kept apart here. Marks after values point to notes of the source that are not given here. Positions of bridges follow the written chain, without caps; N, C: chain ends. Residues, ends and D or L forms follow the SMILES beside them. No end group written: not given here. *: point of attachment. Camptothecin(20S-OCO) = CC[C@@]1(OC(=O)*)C(=O)OCc2c1cc1n(c2=O)Cc2cc3ccccc3nc2-1; GABA = NCCCC(=O)O
Legend:
[1] = tested on: DKMG cells; experiment: XTT cytotoxicity of peptides, peptide-CPT conjugates and CPT on DKMG cells; format: cell-based; settings: for effect on cell viability (in words): 24 h pre-incubation protocol; for effect on cell viability (in words) / cell viability relative to control untreated cells (IC50 could not be calculated) / IC50: XTT; for IC50: non-linear regression, mean ± SD, triplicate
Experimental: (§1) Cell growth in the presence of PDCs was measured by a commercial XTT assay kit (Cell Proliferation Kit, XTT based; Sartorius, Israel). The cells were seeded in 96-well plates (10^4 cells/well) and incubated overnight in a complete growth medium. They were then washed and re-cultured in 100 µL of fresh complete medium containing various concentrations of free drugs or PDCs, for 24, 48, and 72 h. The XTT solution was added to each well and the plate was further incubated for 2–3 h at 37 °C. The optical densities in the wells were measured at both 480 and 680 nm using a TECAN Infinite M200 ELISA reader. All tests were performed in triplicate, and each experiment was repeated three times.
(§2) The cytotoxicity of the PDCs was tested against H1299 and DKMG cells using two protocols. In the first protocol, cells were incubated in a complete medium containing a range of concentrations (0.5–50 µM) of P6, P9, P6-CPT, or P9-CPT for 6 h, after which, the medium was replaced with fresh, drug-free, complete medium, and the cells were cultured for an additional 24 h (designated as 6h24h) or 48 h (6h48h). In the second protocol, cells were exposed continuously to free drugs or PDCs for 24, 48, and 72 h. For each case, during the culture period, cell cytotoxicity was determined as described above and IC50 values were calculated.

[2] = tested on: H1299 cells; experiment: XTT cytotoxicity of peptides, peptide-CPT conjugates and CPT on H1299 cells; settings: for cell viability relative to control untreated cells (IC50 could not be calculated): H1299, XTT; for IC50: Homo sapiens
Experimental: as §1, §2

[3] = molecular target: T1, EGFR on H1299 cells (Homo sapiens, UniProt P00533); experiment: Competitive binding assay with EGF by FACS; format: cell-based; settings: H1299, 2.5 µM FITC-labeled peptides with or without 80 nM EGF, 4 °C 1 h then 37 °C 15 min, duplicate
T1 construct: H1299, H1975, and DKMG cells were characterized by cell surface overexpression of EGFR; endogenous in cells; host or cells: H1299 cells (ATCC)
Experimental: H1299 and DKMG cell lines were cultured in a complete RPMI growth medium in a 6-well plate overnight, until 80% confluent. Pre-incubation was performed with a blocking buffer consisting of 5 mg/mL BSA in PBS, pH 7.4, at 4 °C for 30 min. Then, cells were washed twice in PBS and incubated with 2.5 µM of FITC-labeled peptides with or without 80 nM EGF at 4 °C for 1 h. The cells were then incubated for 15 min at 37 °C under 5% CO2 to allow for peptide internalization. The cells were washed twice by centrifugation at 265× g for 5 min and analyzed by flow cytometry.
Figure 3 Competitive uptake of P3, P4, P5, P6, P9, and P11 peptides by FACS. Fluorescence was measured for H1299 cells (30,000 cells) after incubation with (2.5 µM) P3–P6, P9, and P11 by FITC-labeled peptides in the absence or presence of 80 nM of the EGF protein. The experiments were performed in duplicate. For each sample, the mean ± SD is shown (** p < 0.01, *** p < 0.001).

[4] = Drug release / PDC breakdown in complete growth medium; format: in vitro ADME; settings: RPMI and DMEM complete growth media, 37 °C, 0–72 h, LC–MS, triplicate
Experimental: PDC breakdown rates were determined as described elsewhere. Briefly, peptide-FITC and peptide–CPT conjugates were incubated at 37 °C in 1 mL of DMEM or RPMI full-growth medium for […], 3, 7, 24, 48, and 72 h. At each time point, 10 µL of the sample was taken and mixed with 25 µL ACN/H20 (1:1, v/v.). The samples were centrifuged at 1400 rpm for 15 min. Supernatants were collected, filtered, and analyzed by liquid chromatography–mass spectrometry (LC–MS).
The release rates of CPT from P6-CPT and P9-CPT were measured in RPMI and DMEM complete growth media at 37 °C for 0, 0.5, 3, 7, 24, 48, and 72 h according to the procedure. The degradation of the conjugates and the CPT release were analyzed by LC–MS. […] The conjugates degraded with a half-life of 6–7 h (Figure 8).

[5] = 6 h exposure then 24 h drug-free medium (6h24h), 0.5–50 µM
[6] = H1299, first protocol (6 h preincubation, then up to 48 h), XTT

Compound	effect on cell viability (in words) [1]	cytotoxic effect (in words) [2]	competition of EGF with peptide uptake [3]	half-life of conjugate degradation (CPT release) [4] [h]	cytotoxic effect (in words) [2, 6]	also measured
CSCC[C@@H]1NC(=O)[C@H](C)NC(=O)[C@H](CC(N)=O)NC(=O)[C@H](C(C)C)NC(=O)[C@@H](N)CSSC[C@@H](C(=O)O)NC(=O)[C@H](Cc2ccc(O)cc2)NC(=O)[C@H](CO)NC(=O)[C@H](CCC(N)=O)NC1=O [P9] (H-CVNAMQSYC-OH; disulfide 1-9)	did not affect cell viability	not toxic	EGF significantly competed; also recorded: better competition with EGF compared to P11			
CC[C@@]1(O)C(=O)OCc2c1cc1n(c2=O)Cc2cc3ccccc3nc2-1 [CPT, camptothecin]						cell viability relative to control untreated cells (IC50 could not be calculated) [1, 5]: >50% *; IC50 ([1]; 6 h exposure then 48 h in drug-free medium (6h48h), 0.5–50 µM): 8.5 ± 1 µM; IC50 ([1]; continuous exposure 24 h): 25 ± 1.3 µM; cell viability relative to control untreated cells (IC50 could not be calculated) ([1]; continuous exposure 48 h): <50% **; cell viability relative to control untreated cells (IC50 could not be calculated) ([1]; continuous exposure 72 h): <40% **; cell viability relative to control untreated cells (IC50 could not be calculated) [2, 5]: >50% *; cell viability relative to control untreated cells (IC50 could not be calculated) ([2]; continuous exposure 48 h): <45%; cell viability relative to control untreated cells (IC50 could not be calculated) ([2]; continuous exposure 72 h): <15%; IC50 ([2]; NCI-H1299): 6.7 ± 1.8 µM; IC50 ([2]; NCI-H1299, 24 h): 54.8 ± 2 µM
CAQYTPGRC (disulfide 1-9) [P11]			EGF significantly competed			
CC[C@H](C)[C@@H]1NC(=O)[C@H](Cc2ccc(O)cc2)NC(=O)[C@H](CO)NC(=O)CNC(=O)[C@@H]2CCCN2C(=O)[C@H](C(C)C)NC(=O)[C@H](Cc2c[nH]cn2)NC(=O)[C@@H](N)CSSC[C@@H](C(=O)O)NC1=O [P6] (H-CHVPGSYIC-OH; disulfide 1-9)		not toxic	better competition with EGF compared to P11			
CC[C@@]1(OC(=O)NCCCC(=O)N[C@H]2CSSC[C@@H](C(N)=O)NC(=O)[C@H](Cc3ccc(O)cc3)NC(=O)[C@H](CO)NC(=O)[C@H](CCC(N)=O)NC(=O)[C@H](CCSC)NC(=O)[C@H](C)NC(=O)[C@H](CC(N)=O)NC(=O)[C@H](C(C)C)NC2=O)C(=O)OCc2c1cc1n(c2=O)Cc2cc3ccccc3nc2-1 [P9-CPT] ({Camptothecin(20S-OCO)-GABA}-CVNAMQSYC-NH2; disulfide 1-9; C-terminus assumed)	did not affect cell viability			6 to 7	exhibited cytotoxic effects after 48 h	IC50 compared to free CPT ([1]; 6 h exposure then 48 h): four-fold higher
CC[C@H](C)[C@@H]1NC(=O)[C@H](Cc2ccc(O)cc2)NC(=O)[C@H](CO)NC(=O)CNC(=O)[C@@H]2CCCN2C(=O)[C@H](C(C)C)NC(=O)[C@H](Cc2cnc[nH]2)NC(=O)[C@@H](NC(=O)CCCNC(=O)O[C@]2(CC)C(=O)OCc3c2cc2n(c3=O)Cc3cc4ccccc4nc3-2)CSSC[C@@H](C(N)=O)NC1=O [P6-CPT] ({Camptothecin(20S-OCO)-GABA}-CHVPGSYIC-NH2; disulfide 1-9)				6 to 7	exhibited cytotoxic effects after 48 h	
